Assay results: publication PMC8876231, “Analogues of Natural Chalcones as Efficient Inhibitors of AKR1C3” (Metabolites, 2022)
“And” between values parts separate entries of the source, which are not always exact repeats. Identical values can stand only once.

Columns and labels:
Format in all cases: biochemical
Conditions in all cases: 10 µM compound; mean ± SD
HSD17B3 = target: T1, HSD17B3 (Homo sapiens, UniProt P37058); assay: HSD17B3 inhibition assay (∆4-androstene-3,17-dione to testosterone, HEK293 stably expressing HSD17B3)
T1 construct: expressed in transfected cells
T1 sequence (P37058 1-310): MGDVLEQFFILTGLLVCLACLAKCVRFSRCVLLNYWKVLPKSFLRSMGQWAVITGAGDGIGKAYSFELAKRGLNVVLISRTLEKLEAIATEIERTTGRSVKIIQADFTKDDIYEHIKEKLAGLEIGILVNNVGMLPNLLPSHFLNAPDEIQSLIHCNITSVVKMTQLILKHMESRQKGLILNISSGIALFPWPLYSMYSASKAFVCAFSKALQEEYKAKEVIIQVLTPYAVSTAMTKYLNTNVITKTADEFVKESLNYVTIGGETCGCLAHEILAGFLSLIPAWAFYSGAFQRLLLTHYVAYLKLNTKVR
Excerpt: (§1) For enzymatic assays and inhibitor testing, all enzymes were cloned into bacterial or mammalian expression vectors. AKR1C3 and the human hydroxysteroid dehydrogenases HSD17B1, HSD17B2, HSD17B4 (SDR domain), HSD17B7, and HSD17B10 were cloned into a pGEX vector as described in [71, 72]. The coding sequences for AKR1C1, AKR1C2, and AKR1C4 were cloned by Gateway technology into the pcDNA3-N-MycDest vector according to the manufacturer’s instructions (Life Technologies, Carlsbad, CA, USA). The p11 plasmid coding for HSD17B14 (S205 variant) was a gift from Udo Opperman SGC Oxford, UK. For assays with HSD17B3, HEK293 cells stably expressing HSD17B3 were used. Enzymes were expressed in E. coli BL21 DE3 or E. coli BL21 DE3 Codon Plus RP (Stratagene, San Diego, CA, USA) or in HEK293 cells as described in [71, 72, 73]. Bacterial and cell pellets were stored at −20 °C and −80 °C, respectively, until use.
(§2) Inhibition assays were carried out as described in [71, 74]. […] For a detailed assay setup, see Supplementary Table S6. The incubation at 37 °C was stopped with 0.21 M ascorbic acid in methanol:acetic acid 99:1 (v:v) after the time needed to convert approximately 30% of the substrate in a control assay with 1% DMSO, without inhibitor candidate. Substrates and products were extracted from the reaction mixture by solid-phase extraction using C18 cartridges (Phenomenex, Aschaffenburg, Germany) and separated by RP–HPLC in a Beckman–Coulter HPLC Gold system, using the Luna 5 µm C18(2), 125 × 4.0 mm column (Phenomenex). The mobile phases used were H2O:ACN (57:43 (v:v); for assays of estrone (E1) to oestradiol (E2), E2 to E1, and ∆4-androstene-3,17-dione to testosterone conversion), H2O:ACN (49:51 (v:v); for assays of progesterone to 20α-hydroxyprogesterone conversion), and H2O:MeOH (35:65 (v:v) for assays of dihydrotestosterone (DHT) to 3α-androstanediol conversion) at a flow rate of 1 mL/min. Radioactivity was detected by online scintillation counting by using a radioactivity monitor (LB506D, Berthold Technologies, Bad Wildbad, Germany). Conversion of substrates to products was determined by integration of the peak area of the substrate and product peaks in percent. For calculation of inhibition, the conversion of control assay (assay without inhibitor) was set to 0% inhibition. All assays were run in triplicates, and mean values ± SD are reported.
(§3) Table S6: Activity assay setup […]
(§4) E1: estrone; E2: 17β-estradiol, A: Δ4-androstene-3,17-dione; T: testosterone, P: progesterone, 20αOHP: 20α-hydroxyprogesterone, DHT: dihydrotestosterone, 3α-Adiol: 3α-androstanediol, NaPi: 100 mM Na-phosphate buffer; PI: C0mplete protease inhibitor (Roche);. E.coli - Expression in E.coli BL21 DE3 Codon Plus RP except E.coli BL21 DE3 […]
(§5) application to antiparasitic and natural product synthesis. Eur J Org Chem […]
(§6) Synthesis of Xanthohumol analogues and discovery of potent thioredoxin reductase inhibitor as potential anticancer agent. J Med Chem 2015, 58,

HSD17B14 = target: T2, HSD17B14 (Homo sapiens, UniProt Q9BPX1, T205S); assay: HSD17B14 (S205 variant) inhibition assay (oestradiol to estrone)
T2 construct: His6 (own knowledge: the SGC p11 vector encodes an N-terminal His tag with TEV site); made in house; host or cells: E. coli BL21 DE3
T2 sequence (Q9BPX1 1-270 T205S): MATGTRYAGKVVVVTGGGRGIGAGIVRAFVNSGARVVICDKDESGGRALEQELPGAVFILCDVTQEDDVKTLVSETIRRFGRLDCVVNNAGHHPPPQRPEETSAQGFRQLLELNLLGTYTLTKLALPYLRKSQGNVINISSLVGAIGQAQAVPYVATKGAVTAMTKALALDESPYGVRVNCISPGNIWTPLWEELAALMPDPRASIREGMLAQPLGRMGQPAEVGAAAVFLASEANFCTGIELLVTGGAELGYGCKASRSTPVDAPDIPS
Excerpt: as §1, §2, §3, §4, §5, §6

HSD17B4 = target: T3, HSD17B4 (Homo sapiens, UniProt P51659); assay: HSD17B4 (SDR domain) inhibition assay (oestradiol to estrone)
T3 construct: pGEX-HSD17B4 (SDR domain) in; GST (own knowledge: pGEX vectors encode N-terminal GST); made in house; host or cells: E. coli BL21 DE3 Codon Plus RP
T3 sequence (P51659 1-305 limits assumed): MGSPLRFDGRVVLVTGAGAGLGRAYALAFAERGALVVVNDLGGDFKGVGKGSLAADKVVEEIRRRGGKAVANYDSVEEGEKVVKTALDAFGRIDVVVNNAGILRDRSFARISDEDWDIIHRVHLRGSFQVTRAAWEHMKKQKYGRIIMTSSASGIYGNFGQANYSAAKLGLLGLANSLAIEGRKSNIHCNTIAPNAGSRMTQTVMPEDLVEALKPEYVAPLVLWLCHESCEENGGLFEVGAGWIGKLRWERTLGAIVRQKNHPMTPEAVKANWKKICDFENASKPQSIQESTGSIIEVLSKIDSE
Excerpt: as §1, §2, §3
pGEX-HSD17B4 (SDR domain) in E2 à E1 estradiol-[6,7-3H], 40 NAD 750 µM NaPi pH7.7 […]
as §4, §5, §6

AKR1C1 = target: T4, AKR1C1 (Homo sapiens, UniProt Q04828); assay: AKR1C1 inhibition assay (progesterone to 20α-hydroxyprogesterone)
T4 construct: Myc (N); expressed in transfected cells; host or cells: HEK293
T4 sequence (Q04828 1-323): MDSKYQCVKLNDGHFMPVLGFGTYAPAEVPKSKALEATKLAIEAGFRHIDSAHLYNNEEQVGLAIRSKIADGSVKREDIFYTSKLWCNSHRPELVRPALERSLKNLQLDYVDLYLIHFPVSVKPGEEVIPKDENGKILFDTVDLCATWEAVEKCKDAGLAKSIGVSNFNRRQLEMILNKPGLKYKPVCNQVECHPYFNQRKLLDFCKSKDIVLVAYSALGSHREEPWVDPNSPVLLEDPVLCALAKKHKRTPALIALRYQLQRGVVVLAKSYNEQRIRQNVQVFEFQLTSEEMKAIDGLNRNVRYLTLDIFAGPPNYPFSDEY
Excerpt: as §1, §2, §3, §4, §5, §6

Inhibition of HSD17B3 at 10 µM in % (HSD17B3) [%] | Inhibition of HSD17B14 at 10 µM in % (HSD17B14) [%] | Inhibition of HSD17B4 at 10 µM in % (HSD17B4) [%] | Inhibition of AKR1C1 at 10 µM in % (AKR1C1) | inhibition at 10 µM (HSD17B3) [%] | inhibition at 10 µM (HSD17B14) [%] | inhibition at 10 µM (HSD17B4) [%] | inhibition at 10 µM (AKR1C1) [%] | Structure (SMILES)
24.8 ± 4.8 | 24.9 ± 8.1 | 9.9 ± 6.1 | 96.5% | – | – | – | – | COc1ccc(/C=C/C(=O)c2c(O)cc(O)cc2OC)cc1 [Compound 18]
41.8 ± 3.3 | 1.8 ± 7.7 | 2.0 ± 2.9 | > 75% | – | – | – | – | COc1ccc(/C=C/C(=O)c2c(O)cc(O)cc2O)cc1 [Compound 19]
55.9 ± 4.1 | 18.5 ± 9.3 | 8.6 ± 1.1 | 86.9 ± 1.1% and > 75% | – | – | – | – | Cc1cccc(/C=C/C(=O)c2c(O)cc(O)cc2O)c1 [Compound 20]
52.7 ± 6.7 | -8.0 ± 2.3 | 3.0 ± 6.3 | 90.2 ± 0.8% and > 75% | – | – | – | – | Cc1ccc(/C=C/C(=O)c2c(O)cc(O)cc2O)cc1 [Compound 21]
– | – | – | – | 68.6 | 13.9 ± 2.7 | 19.6 ± 1 | 97 ± 0.5 | O=C(/C=C/c1ccc(Cl)cc1Cl)c1c(O)cc(O)cc1O [Compound 23, 2,4-dichloro-2′,4′,6′-trihydroxychalcone]

Structure (SMILES) | Inhibition of HSD17B3 at 10 µM in % (HSD17B3) [%] | Inhibition of HSD17B14 at 10 µM in % (HSD17B14) [%] | Inhibition of HSD17B4 at 10 µM in % (HSD17B4) [%] | Inhibition of AKR1C1 at 10 µM in % (AKR1C1) | inhibition at 10 µM (HSD17B3) [%] | inhibition at 10 µM (HSD17B14) [%] | inhibition at 10 µM (HSD17B4) [%] | inhibition at 10 µM (AKR1C1) [%]
COc1cc(O)cc(O)c1C(=O)/C=C/c1ccc(Cl)cc1Cl [Compound 25] | 20.9 ± 8.0 | -3.2 ± 6.3 | -6.0 ± 7.5 | 87.9% | – | – | – | –
